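In this assay, cells in 96-well plates receive the compound at five concentrations for 48 hours. Endpoints are linearly interpolated between the surrounding concentrations. GI50 = concentration required for 50% inhibition of growth. The concentration for full growth arrest is given as TGI.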
Tests used:
Experiment in all cases: NCI-60 cell line screen, 48 h
HCT-15 colon = test system: HCT-15 colon
MCF7 breast = test system: MCF7 breast
HCT-116 colon = test system: HCT-116 colon
MDA-MB-468 breast = test system: MDA-MB-468 breast
K-562 leukemia = test system: K-562 leukemia
ACHN renal = test system: ACHN renal
SF-295 CNS = test system: SF-295 CNS
MALME-3M melanoma = test system: MALME-3M melanoma
NCI-H23 lung = test system: NCI-H23 lung
SF-268 CNS = test system: SF-268 CNS
NCI/ADR-RES ovarian = test system: NCI/ADR-RES ovarian
NCI-H460 lung = test system: NCI-H460 lung
UACC-62 melanoma = test system: UACC-62 melanoma
NCI-H226 lung = test system: NCI-H226 lung
LOX IMVI melanoma = test system: LOX IMVI melanoma
RPMI-8226 leukemia = test system: RPMI-8226 leukemia
SK-MEL-5 melanoma = test system: SK-MEL-5 melanoma
A549 NSCLC = test system: A549 NSCLC
OVCAR-5 ovarian = test system: OVCAR-5 ovarian
PC-3 prostate = test system: PC-3 prostate
HL-60(TB) leukemia = test system: HL-60(TB) leukemia
MOLT-4 leukemia = test system: MOLT-4 leukemia
CCRF-CEM leukemia = test system: CCRF-CEM leukemia
TK-10 renal = test system: TK-10 renal
IGROV1 ovarian = test system: IGROV1 ovarian
MDA-MB-435 = test system: MDA-MB-435
SK-OV-3 ovarian = test system: SK-OV-3 ovarian
COLO 205 colon = test system: COLO 205 colon
OVCAR-4 ovarian = test system: OVCAR-4 ovarian
M14 melanoma = test system: M14 melanoma
EKVX NSCLC = test system: EKVX NSCLC
KM12 colon = test system: KM12 colon
OVCAR-3 ovarian = test system: OVCAR-3 ovarian
U251 CNS = test system: U251 CNS
SW-620 colon = test system: SW-620 colon
786-0 renal = test system: 786-0 renal
SF-539 CNS = test system: SF-539 CNS
MDA-MB-231 breast = test system: MDA-MB-231 breast
HCC-2998 colon = test system: HCC-2998 colon
SR leukemia = test system: SR leukemia
DU-145 prostate = test system: DU-145 prostate
CAKI-1 renal = test system: CAKI-1 renal
HOP-62 NSCLC = test system: HOP-62 NSCLC
HOP-92 NSCLC = test system: HOP-92 NSCLC
UACC-257 melanoma = test system: UACC-257 melanoma
RXF 393 renal = test system: RXF 393 renal
HT29 colon = test system: HT29 colon
SNB-75 CNS = test system: SNB-75 CNS
OVCAR-8 ovarian = test system: OVCAR-8 ovarian
SK-MEL-2 melanoma = test system: SK-MEL-2 melanoma
T-47D breast = test system: T-47D breast
SN12C renal = test system: SN12C renal
UO-31 renal = test system: UO-31 renal
SK-MEL-28 melanoma = test system: SK-MEL-28 melanoma
A498 renal = test system: A498 renal
HS 578T breast = test system: HS 578T breast
BT-549 breast = test system: BT-549 breast
SNB-19 CNS = test system: SNB-19 CNS
NCI-H522 lung = test system: NCI-H522 lung

Nc1nn2c(-c3cc4cc(Br)ccc4oc3=O)ccnc2c1N=Nc1ccccc1
GI50 (HCT-15 colon): 4.87 µM | TGI (HCT-15 colon): > 100 µM | GI50 (MCF7 breast): 3.24 µM | TGI (MCF7 breast): 17.5 µM | GI50 (HCT-116 colon): 2.23 µM | TGI (HCT-116 colon): 4.73 µM | GI50 (MDA-MB-468 breast): 2.21 µM | TGI (MDA-MB-468 breast): 9.7 µM | GI50 (K-562 leukemia): 26.7 µM | TGI (K-562 leukemia): > 100 µM | GI50 (ACHN renal): 3.16 µM | TGI (ACHN renal): 14.4 µM | GI50 (SF-295 CNS): 2.1 µM | TGI (SF-295 CNS): 4.88 µM | GI50 (MALME-3M melanoma): 2.72 µM | TGI (MALME-3M melanoma): 10.9 µM | GI50 (NCI-H23 lung): 2.33 µM | TGI (NCI-H23 lung): 5.57 µM | GI50 (SF-268 CNS): 2.12 µM | TGI (SF-268 CNS): 5.66 µM | GI50 (NCI/ADR-RES ovarian): 2.07 µM | TGI (NCI/ADR-RES ovarian): 4.54 µM | GI50 (NCI-H460 lung): 1.95 µM | TGI (NCI-H460 lung): 5.05 µM | GI50 (UACC-62 melanoma): 5.52 µM | TGI (UACC-62 melanoma): 22.1 µM | GI50 (NCI-H226 lung): 2.16 µM | TGI (NCI-H226 lung): 5.84 µM | GI50 (LOX IMVI melanoma): 3.09 µM | TGI (LOX IMVI melanoma): 10.7 µM | GI50 (RPMI-8226 leukemia): 31.6 µM | TGI (RPMI-8226 leukemia): > 100 µM | GI50 (SK-MEL-5 melanoma): 2.71 µM | TGI (SK-MEL-5 melanoma): 8.1 µM | GI50 (A549 NSCLC): 3.42 µM | TGI (A549 NSCLC): 29.3 µM | GI50 (OVCAR-5 ovarian): 3.29 µM | TGI (OVCAR-5 ovarian): 15.1 µM | GI50 (PC-3 prostate): 2.92 µM | TGI (PC-3 prostate): 9.32 µM | GI50 (HL-60(TB) leukemia): > 100 µM | TGI (HL-60(TB) leukemia): > 100 µM | GI50 (MOLT-4 leukemia): 31.8 µM | TGI (MOLT-4 leukemia): > 100 µM | GI50 (CCRF-CEM leukemia): 24.6 µM | TGI (CCRF-CEM leukemia): > 100 µM | GI50 (TK-10 renal): 12.7 µM | TGI (TK-10 renal): 37.2 µM | GI50 (IGROV1 ovarian): 4.57 µM | TGI (IGROV1 ovarian): 33.9 µM | GI50 (MDA-MB-435): 5.31 µM | TGI (MDA-MB-435): > 100 µM | GI50 (SK-OV-3 ovarian): 1.87 µM | TGI (SK-OV-3 ovarian): 3.95 µM | GI50 (COLO 205 colon): 23.2 µM | TGI (COLO 205 colon): > 100 µM | GI50 (OVCAR-4 ovarian): 2.89 µM | TGI (OVCAR-4 ovarian): 15.3 µM | GI50 (M14 melanoma): 16 µM | TGI (M14 melanoma): > 100 µM | GI50 (EKVX NSCLC): 3.29 µM | TGI (EKVX NSCLC): 18 µM | GI50 (KM12 colon): 3.32 µM | TGI (KM12 colon): > 100 µM | GI50 (OVCAR-3 ovarian): 3.24 µM | TGI (OVCAR-3 ovarian): 23.9 µM | GI50 (U251 CNS): 2.01 µM | TGI (U251 CNS): 4.4 µM | GI50 (SW-620 colon): 6.24 µM | TGI (SW-620 colon): > 100 µM | GI50 (786-0 renal): 2.01 µM | TGI (786-0 renal): 4.71 µM | GI50 (SF-539 CNS): 1.99 µM | TGI (SF-539 CNS): 3.88 µM | GI50 (MDA-MB-231 breast): 1.99 µM | TGI (MDA-MB-231 breast): 4.43 µM | GI50 (HCC-2998 colon): 3.17 µM | TGI (HCC-2998 colon): 14.8 µM | GI50 (SR leukemia): 5.38 µM | TGI (SR leukemia): > 100 µM | GI50 (DU-145 prostate): 4.71 µM | TGI (DU-145 prostate): > 100 µM | GI50 (CAKI-1 renal): 5.55 µM | TGI (CAKI-1 renal): 25.2 µM | GI50 (HOP-62 NSCLC): 1.84 µM | TGI (HOP-62 NSCLC): 4.23 µM | GI50 (HOP-92 NSCLC): 2.21 µM | TGI (HOP-92 NSCLC): 6.04 µM | GI50 (UACC-257 melanoma): 11.8 µM | TGI (UACC-257 melanoma): 40.9 µM | GI50 (RXF 393 renal): 1.99 µM | TGI (RXF 393 renal): 4.95 µM | GI50 (HT29 colon): 3.13 µM | TGI (HT29 colon): 11.5 µM | GI50 (SNB-75 CNS): 1.29 µM | TGI (SNB-75 CNS): 3.18 µM | GI50 (OVCAR-8 ovarian): 2.24 µM | TGI (OVCAR-8 ovarian): 5.36 µM | GI50 (SK-MEL-2 melanoma): 3.96 µM | TGI (SK-MEL-2 melanoma): 19.8 µM | GI50 (T-47D breast): 2.79 µM | TGI (T-47D breast): 13.2 µM | GI50 (SN12C renal): 1.91 µM | TGI (SN12C renal): 4.92 µM | GI50 (UO-31 renal): 11.1 µM | TGI (UO-31 renal): 86.6 µM | GI50 (SK-MEL-28 melanoma): 5.02 µM | TGI (SK-MEL-28 melanoma): 22.3 µM | GI50 (A498 renal): 1.97 µM | TGI (A498 renal): 6.71 µM | GI50 (HS 578T breast): 3.11 µM | TGI (HS 578T breast): 17 µM | GI50 (BT-549 breast): 1.92 µM | TGI (BT-549 breast): 3.77 µM | GI50 (SNB-19 CNS): 1.94 µM | TGI (SNB-19 CNS): 4.26 µM | GI50 (NCI-H522 lung): 1.9 µM | TGI (NCI-H522 lung): 4.19 µM

From PubChem BioAssay (NCI)
